The test has as its target IRAK4 (Homo sapiens (Human), UniProt Q9NWZ3). The experiment in a line: IRAK4 Kinase Assay (IMAP fluorescence polarization). Format: biochemical. The settings on record: 0.5 nM GST tagged IRAK4, 100 μM ATP, 100 nM fluorescent peptide substrate RP7030, 30 minutes at 25° C. The gist of the method:
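GST-tagged IRAK4 (0.5 nM) phosphorylates 100 nM fluorescent peptide with 100 μM ATP in 10 mM Tris pH 7.2, 1 mM MgCl2, 1 mM DTT, 0.01% Tween 20 for 30 min at 25 °C. Phosphorylation read as IMAP nanoparticle-binding fluorescence polarization after stop reagent.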
Background: In fluorescence polarisation assays a small probe gives low polarisation when free and higher when bound to something large.
Sequence of IRAK4 (Q9NWZ3 whole entry): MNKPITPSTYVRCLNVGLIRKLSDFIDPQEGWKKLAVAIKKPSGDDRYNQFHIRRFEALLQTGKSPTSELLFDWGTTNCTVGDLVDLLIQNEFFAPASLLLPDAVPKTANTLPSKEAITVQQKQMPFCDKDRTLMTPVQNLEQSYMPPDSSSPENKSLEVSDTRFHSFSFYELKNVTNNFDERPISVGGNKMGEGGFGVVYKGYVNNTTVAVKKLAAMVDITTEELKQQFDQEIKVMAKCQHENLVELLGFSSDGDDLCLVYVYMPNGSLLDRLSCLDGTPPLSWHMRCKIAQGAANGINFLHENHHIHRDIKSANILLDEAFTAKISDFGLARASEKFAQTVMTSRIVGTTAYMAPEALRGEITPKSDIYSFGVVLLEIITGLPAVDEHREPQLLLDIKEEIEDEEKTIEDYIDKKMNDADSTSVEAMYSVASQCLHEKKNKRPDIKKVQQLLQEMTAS
Compound `Cc1n[nH]c(C)c1-c1ccc2ncnc(N[C@H]3CC[C@H](N4CCOCC4)CC3)c2c1` [Example 2-24, 6-(3,5-dimethyl-1H-pyrazol-4-yl)-N-[trans-4-(morpholin-4-yl)cyclohexyl]quinazolin-4-amine] had an IC50 of 104 nM.

Turning to `Cc1nc(-c2ccc3ncnc(N[C@H]4CC[C@H](N5CCOCC5)CC4)c3c2)c[nH]1` [Example 2-25, 6-(2-methyl-1H-imidazol-4-yl)-N-[trans-4-(morpholin-4-yl)cyclohexyl]quinazolin-4-amine], the half-inhibitory concentration (IC50) was 88 nM.

`Cn1ccnc1-c1ccc2ncnc(N[C@H]3CC[C@H](N4CCOCC4)CC3)c2c1` [Example 2-26, 6-(1-methyl-1H-imidazol-2-yl)-N-[trans-4-(morpholin-4-yl)cyclohexyl]quinazolin-4-amine] came in with a 50% inhibitory concentration (IC50) of 562 nM.

As for `Cn1ncnc1-c1ccc2ncnc(N[C@H]3CC[C@H](N4CCOCC4)CC3)c2c1` [Example 2-27, 6-(1-methyl-1H-1,2,4-triazol-5-yl)-N-[trans-4-(morpholin-4-yl)cyclohexyl]quinazolin-4-amine], half-maximal inhibition (IC50) was put at 159 nM.

The compound `c1nc(N[C@H]2CC[C@H](N3CCOCC3)CC2)c2cc(-c3cnoc3)ccc2n1` [Example 2-28, 6-(isoxazol-4-yl)-N-[trans-4-(morpholin-4-yl)cyclohexyl]quinazolin-4-amine] showed an IC50 of 2 nM.

With `COc1cc(-c2ccc3ncnc(N[C@H]4CC[C@H](N5CCOCC5)CC4)c3c2)cnc1F` [Example 2-29, 6-(6-fluoro-5-methoxypyridin-3-yl)-N-[trans-4-(morpholin-4-yl)cyclohexyl]quinazolin-4-amine], half-maximal inhibition (IC50) required 20 nM.

In the case of `Oc1cc(-c2ccc3ncnc(N[C@H]4CC[C@H](N5CCOCC5)CC4)c3c2)cnc1F` [Example 2-30, 2-fluoro-5-(4-{[trans-4-(morpholin-4-yl)cyclohexyl]amino}quinazolin-6-yl)pyridin-3-ol], the IC50 was less than 0.5 nM.

For `CN(C)c1cc(-c2ccc3ncnc(N[C@H]4CC[C@H](N5CCOCC5)CC4)c3c2)cnc1F` [Example 2-31, 6-[5-(dimethylamino)-6-fluoropyridin-3-yl]-N-[trans-4-(morpholin-4-yl)cyclohexyl]quinazolin-4-amine], it took 73 nM to reach half-maximal inhibition (IC50).

With `CNc1cc(-c2ccc3ncnc(N[C@H]4CC[C@H](N5CCOCC5)CC4)c3c2)cnc1F` [Example 2-32, 6-[6-fluoro-5-(methylamino)pyridin-3-yl]-N-[trans-4-(morpholin-4-yl)cyclohexyl]quinazolin-4-amine], the IC50 turned out to be 1 nM.

Compound `Fc1cc(-c2ccc3ncnc(N[C@H]4CC[C@H](N5CCOCC5)CC4)c3c2)cnc1Cl` [Example 2-33, 6-(6-chloro-5-fluoropyridin-3-yl)-N-[trans-4-(morpholin-4-yl)cyclohexyl]quinazolin-4-amine] registered a half-inhibitory concentration (IC50) of 28 nM.

`Fc1cc(-c2ccc3ncnc(N[C@H]4CC[C@H](N5CCOCC5)CC4)c3c2)cnc1F` [Example 2-34, 6-(5,6-difluoropyridin-3-yl)-N-[trans-4-(morpholin-4-yl)cyclohexyl]quinazolin-4-amine]: the IC50 stood at 13 nM.

With `FC(F)c1cncc(-c2ccc3ncnc(N[C@H]4CC[C@H](N5CCOCC5)CC4)c3c2)c1` [Example 2-35, 6-[5-(difluoromethyl)pyridin-3-yl]-N-[trans-4-(morpholin-4-yl)cyclohexyl]quinazolin-4-amine], the IC50 came to 37 nM.

On to `Nc1cc(-c2ccc3ncnc(N[C@H]4CC[C@H](N5CCOCC5)CC4)c3c2)cnc1Cl` [Example 2-36, 6-(5-amino-6-chloropyridin-3-yl)-N-[trans-4-(morpholin-4-yl)cyclohexyl]quinazolin-4-amine], for which the midpoint of inhibition, the IC50, lay at 10 nM.

Consider `CN(C)[C@H]1CC[C@H](Nc2ncnc3ccc(-c4cncc(O)c4)cc23)CC1` [Example 3-1, 5-(4-(((Trans)-4-(dimethylamino)cyclohexyl)amino)quinazolin-6-yl)pyridin-3-ol], for which the concentration for half-maximal inhibition (IC50) was determined as 1 nM.

In the case of `CN(C)C(=O)c1cccc(-c2ccc3ncnc(N[C@H]4CC[C@H](N5CCOCC5)CC4)c3c2)n1` [Example 4-1, N,N-Dimethyl-6-(4-(((trans)-4-morpholinocyclohexyl)amino)quinazolin-6-yl)picolinamide], the concentration for half-maximal inhibition (IC50) is 32 nM.

The compound `Oc1cc(-c2ccc3ncnc(N[C@H]4CC[C@H](N5CCC(F)(F)CC5)CC4)c3c2)cnc1F` [Example 5-1, 5-(4-{[Trans-4-(4,4-difluoropiperidin-1-yl)cyclohexyl]amino}quinazolin-6-yl)-2-fluoropyridin-3-ol] had an IC50 of less than 0.5 nM.

The compound `COC1CN([C@H]2CC[C@H](Nc3ncnc4ccc(-c5cncc(O)c5)cc34)CC2)C1` [Example 5-2, 5-(4-{[trans-4-(3-methoxyazetidin-1-yl)cyclohexyl]amino}quinazolin-6-yl)pyridin-3-ol] registered a concentration for half-maximal inhibition (IC50) of 1 nM.

Regarding `CN(C1CC1)[C@H]1CC[C@H](Nc2ncnc3ccc(-c4cncc(O)c4)cc23)CC1` [Example 5-3, 5-[4-({trans-4-[cyclopropyl(methyl)amino]cyclohexyl}amino)quinazolin-6-yl]pyridin-3-ol], the IC50 worked out at 1 nM.

For the compound `COCCN[C@H]1CC[C@H](Nc2ncnc3ccc(-c4cncc(O)c4)cc23)CC1` [Example 5-4, 5-[4-({trans-4-[(2-methoxyethyl)amino]cyclohexyl}amino)quinazolin-6-yl]pyridin-3-ol], the 50% inhibitory concentration (IC50) is less than 0.5 nM.

`CN1CCN([C@H]2CC[C@H](Nc3ncnc4ccc(-c5cncc(O)c5)cc34)CC2)CC1` [Example 5-5, 5-(4-{[trans-4-(4-methylpiperazin-1-yl)cyclohexyl]amino}quinazolin-6-yl)pyridin-3-ol]: the IC50 was determined as 1 nM.

On to `C[C@@H]1CN([C@H]2CC[C@H](Nc3ncnc4ccc(-c5cncc(O)c5)cc34)CC2)C[C@H](C)O1` [Example 5-6, 5-[4-({trans-4-[(2R,6S)-2,6-dimethylmorpholin-4-yl]cyclohexyl}amino)quinazolin-6-yl]pyridin-3-ol], for which the IC50 was less than 0.5 nM.

As for `CNc1cncc(-c2ccc3ncnc(N[C@H]4CC[C@H](N5CCN(S(C)(=O)=O)CC5)CC4)c3c2)c1` [Example 5-7, 6-[5-(methylamino)pyridin-3-yl]-N-{trans-4-[4-(methylsulfonyl)piperazin-1-yl]cyclohexyl}quinazolin-4-amine], half-maximal inhibition (IC50) required 8 nM.

With `CNc1cncc(-c2ccc3ncnc(N[C@H]4CC[C@H](N5CCC(F)(F)CC5)CC4)c3c2)c1` [Example 5-8, N-[trans-4-(4,4-difluoropiperidin-1-yl)cyclohexyl]-6-[5-(methylamino)pyridin-3-yl]quinazolin-4-amine], 3 nM corresponded to half-maximal inhibition (IC50).

Turning to `CNc1cncc(-c2ccc3ncnc(N[C@H]4CC[C@H](N5CCC(F)CC5)CC4)c3c2)c1` [Example 5-9, N-[trans-4-(4-fluoropiperidin-1-yl)cyclohexyl]-6-[5-(methylamino)pyridin-3-yl]quinazolin-4-amine], the IC50 was 3 nM.

`CNc1cncc(-c2ccc3ncnc(N[C@H]4CC[C@H](N5CCC(CN6CCOCC6)CC5)CC4)c3c2)c1` [Example 5-10, 6-[5-(methylamino)pyridin-3-yl]-N-{trans-4-[4-(morpholin-4-ylmethyl)piperidin-1-yl]cyclohexyl}quinazolin-4-amine]: half-maximal inhibition (IC50) was put at 8 nM.

One may read the IC50 as the midpoint of a concentration-inhibition curve.
